Data on 8 molecules can be found in patent US20180265515A1 (Genentech, Inc., priority 2015, published 2018).

The subject of assay [1] is JAK1-dependent STAT6 phosphorylation downstream of IL-13 stimulation in BEAS-2B human bronchial epithelial cells. Nature of the assay: JAK1 pathway assay in BEAS-2B cells (IL-13 stimulated STAT6 phosphorylation, MSD). It is filed as cell-based. As to conditions: read-out: P-STAT6 BEAS2B + IL13 IC50. The procedure, abridged:
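BEAS-2B human bronchial epithelial cells, plated the day before in complete growth medium, were preincubated with compound for 1 hr at 37° C (0.2% DMSO final), then stimulated with IL-13 at its EC90 for 15 min. STAT6 phosphorylation in lysates was read by MSD; EC50 was taken as 50% inhibition versus DMSO control.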

In assay [2] the target is T1, isolated recombinant JAK2 kinase domain (Homo sapiens, UniProt O60674).
T1 construct: The activity of the isolated recombinant JAK1 and JAK2 kinase domain was measured
T1 sequence (O60674 849-1124 limits assumed): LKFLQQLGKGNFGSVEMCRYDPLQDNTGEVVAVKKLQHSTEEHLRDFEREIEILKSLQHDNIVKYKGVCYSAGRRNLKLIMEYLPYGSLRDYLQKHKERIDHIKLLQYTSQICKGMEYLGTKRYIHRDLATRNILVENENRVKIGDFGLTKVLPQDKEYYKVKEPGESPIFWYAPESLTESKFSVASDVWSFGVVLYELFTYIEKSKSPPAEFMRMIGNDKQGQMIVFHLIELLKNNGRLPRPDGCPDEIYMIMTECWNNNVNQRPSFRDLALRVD
The assay can be described thus: JAK2 enzyme assay (Caliper LabChip, Ki). The class given is biochemical. As to conditions: 25 μM ATP. The method in brief: (§1)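 Ki values fitted with Morrison tight-binding equation adjusted for ATP-competitive inhibition, using product-to-total peptide ratio read by Caliper LabChip. Reactions: isolated JAK1 or JAK2 kinase domain with N-terminal 5-carboxyfluorescein JAK3-derived peptide, 22° C for 30 min, quenched by EDTA.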

Assay [3] has as its target T2, isolated recombinant JAK1 kinase domain (Homo sapiens, UniProt P23458).
T2 construct: The activity of the isolated recombinant JAK1 and JAK2 kinase domain was measured
The assay can be described thus: JAK1 enzyme assay (Caliper LabChip, Ki). It is filed as biochemical. As to conditions: recombinant JAK1 kinase domain, 25 μM ATP. The procedure, abridged:
as §1

Structures are written as SMILES.

T2 sequence (P23458 875-1153 limits assumed): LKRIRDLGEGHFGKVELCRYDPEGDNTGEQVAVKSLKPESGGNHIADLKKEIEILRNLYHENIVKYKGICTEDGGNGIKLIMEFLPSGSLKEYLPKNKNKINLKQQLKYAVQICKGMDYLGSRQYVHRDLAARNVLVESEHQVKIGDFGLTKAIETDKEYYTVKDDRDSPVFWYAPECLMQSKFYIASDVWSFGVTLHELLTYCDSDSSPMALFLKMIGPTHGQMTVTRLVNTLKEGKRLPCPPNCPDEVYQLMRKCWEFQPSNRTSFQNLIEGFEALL

What is called IC50 is the midpoint of a concentration-inhibition curve. A word on the Ki: it is the equilibrium dissociation constant of an inhibitor or competing ligand from its target. Turning to `CNC(=O)[C@@H]1CCCN1C1CCN(C(=O)Cn2cc(NC(=O)c3cnn4cccnc34)c(-c3cc(SC(C)C)ccc3OC(F)F)n2)CC1` [Example 145, N-[3-[2-(difluoromethoxy)-5-isopropylsulfanyl-phenyl]-1-[2-[4-[(2S)-2-(methylcarbamoyl)pyrrolidin-1-yl]-1-piperidyl]-2-oxo-ethyl]pyrazol-4-yl]pyrazolo[1,5-a]pyrimidine-3-carboxamide], the IC50 in assay [1] is 100 nM. Also, the results for the Ki in assay [2] and in assay [3] were 1.6 nM and 0.6 nM, respectively.

With `CC(C)Sc1ccc(OC(F)F)c(-c2nn(CC(=O)N3CCC(N4CCOCC4)CC3)cc2NC(=O)c2cnn3cccnc23)c1` [Example 102, N-[3-[2-(difluoromethoxy)-5-isopropylsulfanyl-phenyl]-1-[2-(4-morpholino-1-piperidyl)-2-oxo-ethyl]pyrazol-4-yl]pyrazolo[1,5-a]pyrimidine-3-carboxamide], the IC50 in assay [1] stood at 20 nM. The results for the Ki in assay [2] and in assay [3] were 0.85 nM and 0.38 nM, respectively.

For `CC(C)Sc1ccc(OC(F)F)c(-c2nn(CC(=O)N3CCC(N(C)CC(=O)N4CCOCC4)CC3)cc2NC(=O)c2cnn3cccnc23)c1` [Example 154, N-[3-[2-(difluoromethoxy)-5-isopropylsulfanyl-phenyl]-1-[2-[4-[methyl-(2-morpholino-2-oxo-ethyl)amino]-1-piperidyl]-2-oxo-ethyl]pyrazol-4-yl]pyrazolo[1,5-a]pyrimidine-3-carboxamide], in assay [1], the IC50 turned out to be 81 nM. The Ki in assay [2] was 1.5 nM; in assay [3], 0.42 nM.

In the case of `CC(C)Sc1ccc(OC(F)F)c(-c2nn(CC(=O)N3CCN(C4CCSCC4)CC3)cc2NC(=O)c2cnn3cccnc23)c1` [Example 119, N-[3-[2-(difluoromethoxy)-5-isopropylsulfanyl-phenyl]-1-[2-oxo-2-(4-tetrahydrothiopyran-4-ylpiperazin-1-yl)ethyl]pyrazol-4-yl]pyrazolo[1,5-a]pyrimidine-3-carboxamide], the IC50 in assay [1] was found to be 30 nM. In addition, the values for the Ki in assay [2] and in assay [3] were 0.96 nM and 0.47 nM, respectively.

As for `CSc1ccc(OC(F)F)c(-c2nn(CC(=O)N3CCC(N(C)CC(C)(F)F)CC3)cc2NC(=O)c2cnn3cccnc23)c1` [Example 24, N-[3-[2-(difluoromethoxy)-5-methylsulfanyl-phenyl]-1-[2-[4-[2,2-difluoropropyl(methyl)amino]-1-piperidyl]-2-oxo-ethyl]pyrazol-4-yl]pyrazolo[1,5-a]pyrimidine-3-carboxamide], in assay [1], the IC50 amounted to 4.9 nM. The Ki in assay [2] is 0.32 nM; in assay [3], 0.22 nM.

As to `CCSc1ccc(OC(F)F)c(-c2nn(CC(=O)N3CCC(N(C)CCC#N)CC3)cc2NC(=O)c2cnn3cccnc23)c1` [Example 194, N-[1-[2-[4-[2-cyanoethyl(methyl)amino]-1-piperidyl]-2-oxo-ethyl]-3-[2-(difluoromethoxy)-5-ethylsulfanyl-phenyl]pyrazol-4-yl]pyrazolo[1,5-a]pyrimidine-3-carboxamide], in assay [1], the IC50 was determined as 25 nM. Further, the Ki in assay [2] turned out to be 0.63 nM; in assay [3], 0.31 nM.

For `CC(C)Sc1ccc(OC(F)F)c(-c2nn(CC(=O)N3CCN(CCOCCO)CC3)cc2NC(=O)c2cnn3cccnc23)c1` [Example 122, N-[3-[2-(difluoromethoxy)-5-isopropylsulfanyl-phenyl]-1-[2-[4-[2-(2-hydroxyethoxy)ethyl]piperazin-1-yl]-2-oxo-ethyl]pyrazol-4-yl]pyrazolo[1,5-a]pyrimidine-3-carboxamide], in assay [1], the IC50 was determined as 42 nM. In addition, the results for the Ki in assay [2] and in assay [3] were 0.85 nM and 0.41 nM, respectively.

Take `CC(C)(C#N)CNC1CCN(C(=O)Cn2cc(NC(=O)c3cnn4cccnc34)c(-c3cc(SC4COC4)ccc3OC(F)F)n2)CC1` [Example 186, N-[1-[2-[4-[(2-cyano-2-methyl-propyl)amino]-1-piperidyl]-2-oxo-ethyl]-3-[2-(difluoromethoxy)-5-(oxetan-3-ylsulfanyl)phenyl]pyrazol-4-yl]pyrazolo[1,5-a]pyrimidine-3-carboxamide]: in assay [1], the IC50 was determined as 90 nM. Besides, the inhibition constant (Ki) in assay [2] was 1.8 nM; in assay [3], 0.65 nM.
